Data reported in patent US8952180B2, “Pyrrolinone carboxamide compounds useful as endothelial lipase inhibitors” (Bristol-Myers Squibb Company, priority 2011, dated 2015).

Target: T1, endothelial lipase (EL) (Homo sapiens, UniProt Q9Y5X9)
T1 construct: HT-1080 cells, which were transformed by RAGE technology (Athersys) to overexpress endogenous EL; endogenous in cells; conditioned medium used as the enzyme source
T1 sequence (Q9Y5X9 21-500): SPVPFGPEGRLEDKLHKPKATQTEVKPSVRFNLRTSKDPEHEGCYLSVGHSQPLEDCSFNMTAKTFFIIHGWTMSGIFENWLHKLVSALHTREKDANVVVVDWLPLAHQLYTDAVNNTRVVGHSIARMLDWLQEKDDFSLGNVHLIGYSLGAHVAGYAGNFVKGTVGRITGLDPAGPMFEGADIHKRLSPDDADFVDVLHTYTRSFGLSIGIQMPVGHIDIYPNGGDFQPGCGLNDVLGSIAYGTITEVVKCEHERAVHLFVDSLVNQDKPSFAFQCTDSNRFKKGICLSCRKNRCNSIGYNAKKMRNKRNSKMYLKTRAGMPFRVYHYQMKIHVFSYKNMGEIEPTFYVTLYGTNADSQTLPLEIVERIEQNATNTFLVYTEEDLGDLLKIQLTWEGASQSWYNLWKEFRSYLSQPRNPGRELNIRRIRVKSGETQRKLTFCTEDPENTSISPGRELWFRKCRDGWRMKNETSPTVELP
Assay: Endothelial lipase (EL) enzymatic assay with fluorescent substrate A10070 in DMPG vesicles
Type: biochemical
Conditions: conditioned media from HT-1080 cells overexpressing endogenous EL; 20 min preincubation at 37° C.; read-out: HLE_EL_CRC IC50
Procedure: Endothelial lipase activity was measured using a fluorescent substrate, A10070, (Invitrogen, CA) doped into an artificial vesicle containing DMPG (Avanti Polar Lipids) as the excipient. Vesicles were prepared by combining 285 uL of 1 mM DMPG in a 1:1 mixture of MeOH and CHCl3 with 15 uL of 1 mM A10070 in a 1:1 mixture of MeOH and CHCl3. The mixture was dried under nitrogen and resuspended in 150 uL of 50 mM HEPES pH 8.0 buffer containing 100 mM NaCl and 0.2 mM EDTA. The sample was allowed to sit at rt for 15 min and then was sonicated 3×4 mins on ice with a Branson Sonicator using duty cycle 1. This preparation provides vesicles with a mole fraction of 0.05 for the FRET substrate.
The enzymatic assay was measured using white, opaque 96-well half area plates. Each well contained 60 uL of assay buffer (50 mM HEPES pH 8.0, 50 mM NaCl and 1 mM CaCl2) and 2 ul of a DMSO solution containing compound of interest. Conditioned media obtained from HT-1080 cells, which were transformed by RAGE technology (Athersys) to overexpress endogenous EL, was added and the reaction was allowed to incubate for 20 min at 37° C. with gentle agitation. The reaction was started by the addition of 20 uL of a 1:4 dilution of vesicles. The final total reaction volume was 100 uL. The reaction rates were measured on a Gemini plate reader with an excitation wavelength of 488 nm and a emission of 530 nm. Readings were taken every 20 seconds for 10 min with agitation between each reading. The slope of the linear portion of the readout was used to calculate the rate of the reaction.

Structure (SMILES)	IC50
CCN1CC(C(=O)NCCCN(C)c2ccccc2)=C(O)C1=O [Example 182, 1-ethyl-4-hydroxy-N-(3-(methyl(phenyl)amino)propyl)-5-oxo-2,5-dihydro-1H-pyrrole-3-carboxamide]	3650 nM
Cc1nc2cc(C#CCNC(=O)C3=C(O)C(=O)N(C)C3)ccc2s1 [Example 247, 4-hydroxy-1-methyl-N-(3-(2-methylbenzo[d]thiazol-5-yl)prop-2-ynyl)-5-oxo-2,5-dihydro-1H-pyrrole-3-carboxamide]	8380 nM
CC(CCc1ccc(Cl)c(Cl)c1)NC(=O)C1=C(O)C(=O)N(CCC(=O)O)C1 (centres unmarked) [Example 344, 3-(4-(4-(3,4-dichlorophenyl)butan-2-ylcarbamoyl)-3-hydroxy-2-oxo-2,5-dihydro-1H-pyrrol-1-yl) propanoic acid]	575 nM
CCOC(=O)[C@H](Cc1ccccc1)N1CC(C(=O)NCCCc2ccc(Cl)c(Cl)c2)=C(O)C1=O [Example 138, (S)-ethyl 2-(4-(3-(3,4-dichlorophenyl)propylcarbamoyl)-3-hydroxy-2-oxo-2,5-dihydro-1H-pyrrol-1-yl)-3-phenylpropanoate]	526 nM
C=CC(CCc1ccc(Cl)c(Cl)c1)NC(=O)C1=C(O)C(=O)N(C)C1 (centres unmarked) [Example 236, N-(5-(3,4-dichlorophenyl)pent-1-en-3-yl)-4-hydroxy-1-methyl-5-oxo-2,5-dihydro-1H-pyrrole-3-carboxamide]	493 nM
CC(CCc1ccc(Cl)c(Cl)c1)NC(=O)C1=C(O)C(=O)N(CCNC(=O)c2cc(F)cc(C(F)(F)F)c2)C1 (centres unmarked) [Example 273, N-(4-(3,4-dichlorophenyl)butan-2-yl)-1-(2-(3-fluoro-5-(trifluoromethyl)benzamido)ethyl)-4-hydroxy-5-oxo-2,5-dihydro-1H-pyrrole-3-carboxamide]	2680 nM
CN1CC(C(=O)NC(CCc2ccc(Cl)c(Cl)c2)C2CC2)=C(O)C1=O (centres unmarked) [Example 233, N-(1-cyclopropyl-3-(3,4-dichlorophenyl)propyl)-4-hydroxy-1-methyl-5-oxo-2,5-dihydro-1H-pyrrole-3-carboxamide]	6280 nM
CC(=O)N(C)CCN1CC(C(=O)NC(C)CCc2ccc(Cl)c(Cl)c2)=C(O)C1=O (centres unmarked) [Example 280, N-(4-(3,4-dichlorophenyl)butan-2-yl)-4-hydroxy-1-(2-(N-methylacetamido)ethyl)-5-oxo-2,5-dihydro-1H-pyrrole-3-carboxamide]	7300 nM
CCN1CC(C(=O)NC[C@H]2CCc3ccccc3O2)=C(O)C1=O [Example 297, (R)-N-(chroman-2-ylmethyl)-1-ethyl-4-hydroxy-5-oxo-2,5-dihydro-1H-pyrrole-3-carboxamide]	6520 nM
CCN1CC(C(=O)NCCc2ccc(S(N)(=O)=O)cc2)=C(O)C1=O [Example 181, 1-ethyl-4-hydroxy-5-oxo-N-(4-sulfamoylphenethyl)-2,5-dihydro-1H-pyrrole-3-carboxamide]	581 nM
C[C@@H](NC(=O)C1=C(O)C(=O)N(CC(F)(F)F)C1)c1ccc2ccccc2c1 [Example 300, (R)-4-hydroxy-N-(1-(naphthalen-2-yl)ethyl)-5-oxo-1-(2,2,2-trifluoroethyl)-2,5-dihydro-1H-pyrrole-3-carboxamide]	3810 nM
CC(CCc1ccc(Cl)c(Cl)c1)NC(=O)C1=C(O)C(=O)N(Cc2c[nH]nn2)C1 (centres unmarked) [Example 272, 1-((1H-1,2,3-triazol-4-yl)methyl)-N-(4-(3,4-dichlorophenyl)butan-2-yl)-4-hydroxy-5-oxo-2,5-dihydro-1H-pyrrole-3-carboxamide]	3440 nM
Cc1ccc(C#CCNC(=O)C2=C(O)C(=O)N(C)C2)cc1C(F)(F)F [Example 248, 4-hydroxy-1-methyl-N-(3-(4-methyl-3-(trifluoromethyl)phenyl)prop-2-ynyl)-5-oxo-2,5-dihydro-1H-pyrrole-3-carboxamide]	4660 nM
CN1CC(C(=O)NC(CCc2ccc(Cl)c(Cl)c2)C2CC2)=C(O)C1=O (centres unmarked) [Example 232, N-(1-cyclopropyl-3-(3,4-dichlorophenyl)propyl)-4-hydroxy-1-methyl-5-oxo-2,5-dihydro-1H-pyrrole-3-carboxamide]	5460 nM
O=C(NCCCc1ccc(Cl)c(Cl)c1)C1=C(O)C(=O)N(CC2CCCCC2)C1 [Example 48, 1-(cyclohexylmethyl)-N-(3-(3,4-dichlorophenyl)propyl)-4-hydroxy-5-oxo-2,5-dihydro-1H-pyrrole-3-carboxamide]	5.73 nM
CC(CCc1ccc(Cl)c(Cl)c1)NC(=O)C1=C(O)C(=O)N([C@H]2CCc3ccc(C(F)(F)F)cc32)C1 (stereo partly drawn) [Example 347, N-(4-(3,4-dichlorophenyl)butan-2-yl)-4-hydroxy-5-oxo-1-((S)-6-(trifluoromethyl)-2,3-dihydro-1H-inden-1-yl)-2,5-dihydro-1H-pyrrole-3-carboxamide]	500 nM
CCN1CC(C(=O)NCCCc2ccc(Cl)c(Cl)c2)=C(NCCCc2ccc(Cl)c(Cl)c2)C1=O [Example 179, N-(3-(3,4-dichlorophenyl)propyl)-4-(3-(3,4-dichlorophenyl)-propylamino)-1-ethyl-5-oxo-2,5-dihydro-1H-pyrrole-3-carboxamide]	546 nM
CC1C(C(=O)NCCCc2ccc(Cl)c(Cl)c2)=C(O)C(=O)N1CCOc1ccccc1 (centres unmarked) [Example 194, N-(3-(3,4-dichlorophenyl)propyl)-4-hydroxy-2-methyl-5-oxo-1-(2-phenoxyethyl)-2,5-dihydro-1H-pyrrole-3-carboxamide]	466 nM
O=C(NCCCc1ccc(Cl)c(Cl)c1)C1=C(O)C(=O)N(CCOc2ccccc2)C1 [Example 61, N-(3-(3,4-dichlorophenyl)propyl)-4-hydroxy-5-oxo-1-(2-phenoxyethyl)-2,5-dihydro-1H-pyrrole-3-carboxamide]	5.44 nM
O=C(NCCCOc1ccccc1)C1=C(O)C(=O)N(CC(F)(F)F)C1 [Example 299, 4-hydroxy-5-oxo-N-(3-phenoxypropyl)-1-(2,2,2-trifluoroethyl)-2,5-dihydro-1H-pyrrole-3-carboxamide]	2740 nM
